According to BindingDB's records for doi:10.1016/j.ejmech.2013.01.009 (Fudan University, 2013):
pIC50: −log10 of the molar value.

Target: Signal transducer and activator of transcription 3 (Homo sapiens, UniProt P40763)
Assay: Inhibition of STAT3 in IL-6-stimulated human HepG2 cells treated for 1 hr prior to IL-6 challenge measured after 5.5 hrs by luciferase reporter gene assay

Signal transducer and activator of transcription 3, sequence (P40763 whole entry): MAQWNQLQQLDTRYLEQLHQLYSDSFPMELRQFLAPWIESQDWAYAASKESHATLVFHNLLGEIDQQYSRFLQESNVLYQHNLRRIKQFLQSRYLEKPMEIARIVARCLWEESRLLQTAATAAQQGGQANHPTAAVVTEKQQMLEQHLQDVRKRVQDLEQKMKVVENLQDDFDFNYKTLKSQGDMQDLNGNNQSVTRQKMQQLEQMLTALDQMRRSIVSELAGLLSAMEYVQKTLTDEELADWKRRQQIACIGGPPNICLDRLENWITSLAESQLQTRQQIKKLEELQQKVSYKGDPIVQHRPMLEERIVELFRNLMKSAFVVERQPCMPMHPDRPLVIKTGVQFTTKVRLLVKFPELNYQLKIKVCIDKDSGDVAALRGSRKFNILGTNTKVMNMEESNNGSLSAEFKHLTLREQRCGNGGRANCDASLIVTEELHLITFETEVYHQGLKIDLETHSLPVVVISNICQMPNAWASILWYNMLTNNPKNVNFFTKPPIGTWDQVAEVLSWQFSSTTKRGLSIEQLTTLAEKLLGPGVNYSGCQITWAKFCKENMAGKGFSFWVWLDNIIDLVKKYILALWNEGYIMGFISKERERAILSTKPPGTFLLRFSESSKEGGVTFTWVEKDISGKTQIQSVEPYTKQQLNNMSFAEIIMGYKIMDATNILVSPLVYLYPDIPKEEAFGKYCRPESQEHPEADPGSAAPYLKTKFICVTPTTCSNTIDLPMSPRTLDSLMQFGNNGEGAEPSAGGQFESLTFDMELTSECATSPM

## CCC(Sc1nc2ccc(NC(=O)c3ccc(OC)cc3)cc2s1)C(=O)Nc1ccc(Br)cc1 (stereo unspecified)
  pIC50: 5.45
